Experimental data from patent US4067997A, “Synergistic microbecidal composition and method” (priority 1976, dated 1978).
≈ marks a conversion by molar mass, not a printed value. Counter-ions that a name gives are not always drawn. Like-named read-outs stand apart in the source and are kept apart here.

Key:
[1] = test system: nine gram-positive organisms and the yeast/fungus Candida; assay: MIC, broth dilution, over all organisms (Examples I/II); format: cell-based; details: for Inhibition in words: saturated acids, Table 1; for Activity in words: at the concentration tested
Method: (§1) In order to establish comparative bactericidal and fungicidal results with homologous fatty acids, a series of experiments was performed with thirty straight-chain fatty acids and derivatives thereof. Eight different gram-negative and twelve different gram-positive organisms, representing a very broad spectrum of organisms, were used in these experiments including the fungus Candida (a yeast). Additionally, fatty acids were chosen to show the effects of saturation versus unsaturation, in the fatty acid claim. Standard solutions of the fatty acids and their derivatives were prepared by first dissolving the weighed compounds in 1 to 2 ml of 95% ethanol and immediately pouring this solution into 200 ml of Tripticase Soy Broth. These lipid compounds which are insoluble in water and broth precipitated into very small crystals or droplets. The tubes containing the suspension were warmed to approximately 70° C and were then placed in an ultrasonic tank for further solubilization of the lipid derivatives.
(§2) Standard solutions (or suspensions) at 1,000 μg/ml were twofold serially diluted with additional broth to a concentration of 125 μg/ml. A 4-ml amount of each dilution was then quickly, and with constant agitation, dispensed into appropriately labeled screw-capped glass tubes (16 by 125 mm). The tubes were sterilized with steam at 15 psi for 15 minutes. After sterilization, all tubes were cooled and incubated overnight at 35° C to insure sterility.
(§3) All compounds were compared on a molar (micromoles/milliliter) rather than on a mass basis. In the following lists of organisms used, those followed by a parenthetical number are registered with the American Type Culture Collection (ATCC); the remainder were isolates from Providence Hospital or Northland Laboratory.
Staphylococcus aureus, S. epidermidis, beta-hemolytic streptococci (Group A and non-group A), group D streptococcus, Bacillus subtilis (6051), Sarcina lutea (9431), Micrococcus sp., Candida albicans, Nocardia asteroids (3308), Corynebacterium sp. (10700), and pneumococcus (63001).
(§4) One drop (0.04 ± 0.01 ml) of an 18-hr broth culture containing 10^7 and 10^9 organisms/ml was added to each dilution of the test compound, as well as to a tube of plain broth which served as the positive control. After inoculation, the contents of each tube were well mixed, and the tubes were incubated at 35° C in a 5% carbon dioxide + […] atmosphere.
(§5) The MIC is defined as the lowest concentration of compound at which no […] evidence of growth was observed when turbidity of the inoculated broth dilutions was compared with control tubes. […] Only a one-tube difference between the bactericidal and bacteriostatic concentrations was normally observed.
Table 5 presents a comparison of the C10 and C12 free acids and their glyceryl derivatives, and Table 6 gives the corresponding ranges of activity.
(§6) Standard solutions (1000 μg/ml) of three fatty acids and polyglycerol esters thereof were prepared as described in Example I. Also sucrose esters were prepared by transferring the weighed compounds (0.2 gm. dissolved in 1 ml absolute methanol) into 200 ml of sterile Trypticase Soy Broth (TSB). These standard solutions (1000 μg/ml) were twofold serially diluted with additional sterile broth to a concentration of 125 μg/ml. A 3.8 aliquot of each dilution was asceptically delivered into sterile screw-capped culture tubes. All tubes were incubated overnight at 36° C to insure sterility. The microorganisms used in this example were the same as those used in Example I.
The inoculum, 0.05 ml of an 13-24 hour TSB culture (approximately 10^9 organisms/ml) was asceptically delivered into all dilutions of the compounds, mixed well, and incubated at 36° C. […]

[2] = test system: Candida albicans; assay: MIC on mass basis (Example V procedure); format: cell-based; details: Candida albicans, read-out: MIC
Method: (§7) The essential procedure of Example I was followed with a series of phenolic compounds, with the exception that the test method was conducted on a mass (μg/ml) basis rather than a molecular (mol/ml) basis of the foregoing tests, since the long established phenol-coeffecient test is on a mass rather than molecular basis. Additionally, a different but closely related group of organisms were used in this test, in order to give a complete representative span on gram-negative, gram-positive and fungus organisms. Additionally, the phenolic derivatives chosen for test purposes include a number of derivatives which are presently accepted by the FDA as food-grade phenolic microbicides.
(§8) The same procedure of Example V was repeated but with combinations of mono-laurin (GML).
(§9) The procedure of Example V was repeated with combinations of glycerol mono-laurin (GML) and ethylenediamine tetraacetic acid (EDTA) as the calcium salt and in combination with BHA.

[3] = test system: Escherichia coli; assay: MIC on mass basis (Example V procedure); format: cell-based; details: Escherichia coli, read-out: MIC
Method: as §7, §8, §9

[4] = test system: Nocardia asteroides; assay: MIC on mass basis (Example V procedure); format: cell-based
Method: as §7, §8, §9

[5] = test system: Pseudomonas aeruginosa; assay: MIC on mass basis (Example V procedure); format: cell-based; details: Pseudomonas aeruginosa, read-out: MIC
Method: as §7, §8, §9

[6] = test system: Saccharomyces cerevisiae; assay: MIC on mass basis (Example V procedure); format: cell-based; details: Saccharomyces cerevisiae, read-out: MIC
Method: as §7, §8, §9

[7] = test system: Staphylococcus aureus; assay: MIC on mass basis (Example V procedure); format: cell-based; details: Staphylococcus aureus, read-out: MIC
Method: as §7, §8, §9

[8] = test system: Corynebacterium sp.; assay: MIC on mass basis (Example V procedure); format: cell-based
Method: as §7

[9] = test system: Streptococcus faecalis (Group D); assay: MIC on mass basis (Example V procedure); format: cell-based; details: Enterococcus faecalis, read-out: MIC
Method: as §7

[10] = test system: Streptococcus pyogenes; assay: MIC on mass basis (Example V procedure); format: cell-based
Method: as §7

[11] = test system: Streptococcus Group A; assay: MIC, broth dilution (Examples I/II); format: cell-based, beta-hemolytic streptococci Group A; details: group A Streptococci
Method: as §1, §2, §3, §4, §5, §6
The inoculum, 0.05 ml of an 13-24 hour TSB culture (approximately 10^9 organisms/ml) was asceptically delivered into all dilutions of the compounds, mixed well, and incubated at 36° C. A tube of inoculated broth without the compound served as a positive control and an uninoculated set of dilutions incubated along with the test dilutions, served as a negative control.
In those cases in which the test compound itself caused turbidity, an aliquot (0.015 ml) of the mixed broth was inoculated onto an agar plate and incubated at 36° C for examination, as described in Example I. The control procedure of Example I was also repeated. The lauric, capric, and oleic acids were used as internal controls and for comparison to Example I. The minimal inhibitory concentrations (μmole/ml) for the compounds studied are given in Tables 7 and 8.

[12] = Table 12, Nocardia asteroides, read-out: MIC
[13] = Table 12, Pseudomonas aeruginosa
[14] = Table 12, Saccharomyces cerevisiae
[15] = Table 12, Staphylococcus aureus
[16] = Table 12, Corynebacterium sp., read-out: MIC
[17] = Table 12, Streptococcus faecalis (Group D)
[18] = Table 12, Streptococcus pyogenes, read-out: MIC
[19] = Table 2, range over the organisms of Table 1, read-out: MIC range
[20] = Table 6, range over the organisms of Table 5, NI = no inhibition
[21] = Table 4, range over the organisms of Table 3, read-out: MIC range

Compound	MIC ([2]; Table 12, Candida albicans) [µg/mL]	MIC ([3]; Table 12, Eschericia coli) [µg/mL]	MIC [4, 12] [µg/mL]	MIC [5, 13] [µg/mL]	MIC [6, 14] [µg/mL]	MIC [7, 15] [µg/mL]	MIC [8, 16] [µg/mL]	MIC [9, 17] [µg/mL]	MIC [10, 18] [µg/mL]	also measured
CCCCCCCCCC(=O)OCC(O)CO (stereo not shown) [1-mono-caprin]	–	–	–	–	–	–	–	–	–	MIC ([1]; Table 6, range over the organisms of Table 5, NI = no inhibition, read-out: MIC range): 100 to 2000 µM (≈ 24.6 to 493 µg/mL)
Cc1cc(C(C)(C)C)c(O)c(C(C)(C)C)c1 [BHT, 2,6-di-tert-butyl-4-methylphenol]	> 5000	> 5000	1000	> 5000	> 5000	> 5000	100 (≈ 0.454 mM)	> 5000	1000 (≈ 4.54 mM)	MIC ([2]; Table 16, Candida albicans, no unit in table): > 1000 µg/mL; MIC ([3]; Table 16, Escherichia coli, no unit in table (Example 5 procedure, mass basis)): > 1000 µg/mL; MIC ([4]; Table 16, Nocardia asteroides, no unit in table): 1,000; MIC ([5]; Table 16, Pseudomonas aeruginosa, no unit in table): > 1000 µg/mL; MIC ([6]; Table 16, Saccharomyces cerevisiae, no unit in table): > 1000 µg/mL; MIC ([7]; Table 16, Staphylococcus aureus, no unit in table): > 1000 µg/mL; MIC ([8]; Table 16, Corynebacterium sp., no unit in table): 100; MIC ([9]; Table 16, Streptococcus faecalis (Group D), no unit in table): > 1000 µg/mL; MIC ([10]; Table 16, Streptococcus pyogenes, no unit in table): 1,000
CCc1cc(C(C)(C)C)c(O)c(C(C)(C)C)c1 [C2, 2,6-di-tert-butyl-4-ethylphenol]	> 5000	> 5000	500	> 5000	> 5000	5000	1000 (≈ 4.27 mM)	2500 (≈ 10.7 mM)	1000 (≈ 4.27 mM)	–
CCCCc1cc(C(C)(C)C)c(O)c(C(C)(C)C)c1 [C4, 2,6-di-tert-4-butylphenol]	> 5000	> 5000	500	> 5000	> 5000	> 5000	1000 (≈ 3.81 mM)	> 5000	5000 (≈ 19.1 mM)	–
CCCCCCc1cc(C(C)(C)C)c(O)c(C(C)(C)C)c1 [C6, 2,6-di-tert-4-hexylphenol]	> 5000	> 5000	5000	> 5000	> 5000	> 5000	5000 (≈ 17.2 mM)	> 5000	> 5000	–
CCCCCCCCc1cc(C(C)(C)C)c(O)c(C(C)(C)C)c1 [C8, 2,6-di-tert-4-octylphenol]	> 5000	> 5000	5000	> 5000	> 5000	> 5000	5000 (≈ 15.7 mM)	> 5000	> 5000	–
CCCCCCCCCCc1cc(C(C)(C)C)c(O)c(C(C)(C)C)c1 [C10, 2,6-di-tert-4-decylphenol]	> 5000	> 5000	5000	> 5000	> 5000	> 5000	5000 (≈ 14.4 mM)	> 5000	> 5000	–
CCCCCCCCCC(=O)O [Capric acid, capric acid]	–	–	–	–	–	–	–	–	–	MIC [1, 19]: 1450 to 5800 µM (≈ 250 to 999 µg/mL); MIC range [1, 20]: 1.45 - 5.8 μ/Mol/ml
CCCCCC(=O)O [Caproic, caproic acid]	–	–	–	–	–	–	–	–	–	Inhibition in words [1]: not inhibitory at all
CCCCCCCCCCCCN [Dodecylamine HCl]	–	–	–	–	–	–	–	–	–	MIC ([1]; read-out: MIC range): 28 to 112 µM
CCCCCCCCCCCC(=O)O [Lauric acid, lauric acid]	–	–	–	–	–	–	–	–	–	MIC ([11]; Bio Gel and Florisil used): > 990 µM; MIC ([11]; filtered (laurate crystals removed)): 1000 µM (≈ 200 µg/mL); MIC ([11]; non-filtered broth): 125 µM (≈ 25 µg/mL); Effect of albumin on MIC ([1]; Albumin (0.1%) added): had no effect on the determination of the MIC; MIC range ([1]; Table 4, range over the organisms of Table 3): 0.062 to 2.49 µmol/mL; MIC range [1, 20]: 0.062 - 2.49 μ/Mol/ml; MIC ([1]; read-out: MIC range): 62 to 2490 µM (≈ 12.4 to 499 µg/mL); Inhibition in words [1]: clearly the more active saturated acid
CCCCCCCCCCCC(=O)N(C)C [Lauryl N,N-dimethylamide]	–	–	–	–	–	–	–	–	–	MIC [1, 21]: 54 to 109 µM (≈ 12.3 to 24.8 µg/mL)
CCCCCCCCCCCCO [Lauryl alcohol]	–	–	–	–	–	–	–	–	–	MIC [1, 21]: 67 to 5400 µM (≈ 12.5 to 1010 µg/mL)
CCCCCCCCCCCCCC(=O)O [Myristic]	–	–	–	–	–	–	–	–	–	MIC ([1]; read-out: MIC range): 218 to 4370 µM (≈ 49.8 to 998 µg/mL)
CCCC/C=C\CCCCCCCC(=O)O [Myristoleic]	–	–	–	–	–	–	–	–	–	MIC [1, 19]: 55 to 552 µM (≈ 12.4 to 125 µg/mL)
CCCCCCCC/C=C\CCCCCCCC(=O)O [Oleic acid]	–	–	–	–	–	–	–	–	–	Activity in words [1]: very limited activity
CCCCCC/C=C\CCCCCCCC(=O)O [Palmitoleic]	–	–	–	–	–	–	–	–	–	MIC [1, 19]: 24 to 983 µM (≈ 6.11 to 250 µg/mL)
CCCCCCCCCCCCCCCCCC(=O)O [Stearic, stearic acid]	–	–	–	–	–	–	–	–	–	Inhibition in words [1]: not inhibitory at all
Triglycerol oleate	–	–	–	–	–	–	–	–	–	MIC ([1]; Table 7, one entry across all (oleic acid: all other than Grp. A) organisms, NO INHIBITION, max. tested listed): > 1980 µM; Activity in words [1]: no activity at the concentration tested
